Legend:
Details in all cases: compound at 10 μM
[1] = biological target: T1, Human opioid (ORL1) (Homo sapiens, UniProt P41146); experiment: Radioligand binding, human opioid ORL1 membranes, FlashPlate, [125I]-Nociceptin
T1 construct: purchased Perkin Elmer Biosignal
Summary of the method: (§1)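 Cloned human receptor membranes were coated onto FlashPlate wells and incubated with radioligand and compound (added from a 0.5 mM DMSO daughter plate) for 1 hour at room temperature in the dark. Scintillation counting gave percent inhibition, with DMSO defining total and reference ligand defining non-specific binding.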

[2] = biological target: T2, Human neurokinin (NK1) (Homo sapiens, UniProt P25103); experiment: Radioligand binding, human neurokinin NK1 membranes, filtration, [125I]-Substance P
T2 construct: purchased Perkin Elmer Biosignal
Summary of the method: (§2)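 Percent inhibition of radioligand binding measured on recombinant human membranes: NK1 with [125I]-Substance P, KOP with [3H]-Diprenorphine. Incubation 1 h at room temperature, then harvest onto 0.3% PEI-soaked filters, cold Tris-HCl pH 7.4 washes and scintillation counting; non-specific binding from reference ligand wells.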

[3] = biological target: T3, Human neuropeptide Y (NPY-Y1) (Homo sapiens, UniProt P25929); experiment: Radioligand binding, human neuropeptide Y NPY-Y1 membranes, FlashPlate, [125I]-PYY
T3 construct: purchased Perkin Elmer Biosignal
T3 sequence (P25929 1-384): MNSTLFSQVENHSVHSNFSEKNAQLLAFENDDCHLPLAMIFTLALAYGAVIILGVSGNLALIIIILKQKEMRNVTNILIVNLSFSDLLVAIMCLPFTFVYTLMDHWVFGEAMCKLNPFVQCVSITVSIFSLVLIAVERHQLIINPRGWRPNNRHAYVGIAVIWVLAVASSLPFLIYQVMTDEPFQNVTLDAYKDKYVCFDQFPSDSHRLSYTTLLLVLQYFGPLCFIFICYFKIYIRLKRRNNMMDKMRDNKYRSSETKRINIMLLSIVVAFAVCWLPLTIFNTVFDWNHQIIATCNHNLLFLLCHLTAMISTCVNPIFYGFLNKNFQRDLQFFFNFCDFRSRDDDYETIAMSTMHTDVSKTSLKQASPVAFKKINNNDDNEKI
Summary of the method: as §1

[4] = biological target: T4, Human δ-opioid (DOP) (Homo sapiens, UniProt P41143); experiment: Radioligand binding, human δ-opioid (DOP) membranes, FlashPlate, [3H]-Bremazocine
T4 construct: purchased Perkin Elmer Biosignal
Summary of the method: as §1

[5] = biological target: T5, Human Melanocortin (MC3) (Homo sapiens, UniProt P41968); experiment: Radioligand binding, human melanocortin MC3 membranes, FlashPlate, [125I]-NDP-αMSH
T5 construct: purchased Perkin Elmer Biosignal
Summary of the method: as §1

[6] = biological target: T6, Human μ-opioid (MOP) (Homo sapiens, UniProt P35372); experiment: Radioligand binding, human μ-opioid (MOP) membranes, FlashPlate, [3H]-Naloxone
T6 construct: purchased Perkin Elmer Biosignal
Summary of the method: as §1

[7] = biological target: T7, Human melanocortin (MC5) (Homo sapiens, UniProt P33032); experiment: Radioligand binding, human melanocortin MC5 membranes, FlashPlate, [125I]-NDP-αMSH
T7 construct: purchased Perkin Elmer Biosignal
Summary of the method: as §1

[8] = biological target: T8, Mouse urotensin (mUR2) (Mus musculus, UniProt Q8VIH9); experiment: Radioligand binding, mouse urotensin mUR2 membranes, FlashPlate, [125I]-Urotensin II
T8 construct: purchased Perkin Elmer Biosignal
T8 sequence (Q8VIH9 1-385): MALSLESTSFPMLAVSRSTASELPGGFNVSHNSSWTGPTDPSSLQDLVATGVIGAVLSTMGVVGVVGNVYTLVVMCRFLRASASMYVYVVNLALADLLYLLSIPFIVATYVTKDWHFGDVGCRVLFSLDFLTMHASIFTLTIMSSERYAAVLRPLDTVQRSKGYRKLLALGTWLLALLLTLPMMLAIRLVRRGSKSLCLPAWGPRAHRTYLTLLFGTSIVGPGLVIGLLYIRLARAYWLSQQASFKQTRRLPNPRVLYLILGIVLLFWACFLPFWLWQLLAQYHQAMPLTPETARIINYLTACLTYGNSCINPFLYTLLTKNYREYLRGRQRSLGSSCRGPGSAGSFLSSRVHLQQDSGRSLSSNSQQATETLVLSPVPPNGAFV
Summary of the method: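 Cloned mouse urotensin (mUR2) receptor membranes from Perkin Elmer Biosignal were immobilized in FlashPlate microplates using a proprietary coating. Each well got 19.5 μl buffer, then 0.5 μl of DMSO, reference ligand, or compound. Adding 5 μl of [125I]-Urotensin II, diluted to 5× final concentration in binding buffer, started binding. Plates were sealed with TopSeal-A and incubated 1 hour at room temperature in the dark. Wells were counted for 30 seconds each on a TopCount after a 60-second delay, and percentage inhibition was calculated.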

[9] = biological target: T9, Human melanin-concentrating hormone (MCH1) (Homo sapiens, UniProt Q99705); experiment: Radioligand binding, human melanin-concentrating hormone MCH1 membranes, FlashPlate, [125I]-S36057
T9 construct: purchased Perkin Elmer Biosignal
Summary of the method: as §1

[10] = biological target: T10, Human κ-Opioid (KOP) (Homo sapiens, UniProt P41145); experiment: Radioligand binding, human κ-opioid (KOP) membranes, filtration, [3H]-Diprenorphine
T10 construct: purchased Perkin Elmer Biosignal
Summary of the method: as §2

[11] = biological target: T11, Human Melanocortin (MC4) (Homo sapiens, UniProt P32245); experiment: Radioligand binding, human melanocortin MC4 membranes, FlashPlate, [125I]-NDP-αMSH
T11 construct: purchased Perkin Elmer Biosignal
Summary of the method: as §1

T10 sequence (P41145 whole entry): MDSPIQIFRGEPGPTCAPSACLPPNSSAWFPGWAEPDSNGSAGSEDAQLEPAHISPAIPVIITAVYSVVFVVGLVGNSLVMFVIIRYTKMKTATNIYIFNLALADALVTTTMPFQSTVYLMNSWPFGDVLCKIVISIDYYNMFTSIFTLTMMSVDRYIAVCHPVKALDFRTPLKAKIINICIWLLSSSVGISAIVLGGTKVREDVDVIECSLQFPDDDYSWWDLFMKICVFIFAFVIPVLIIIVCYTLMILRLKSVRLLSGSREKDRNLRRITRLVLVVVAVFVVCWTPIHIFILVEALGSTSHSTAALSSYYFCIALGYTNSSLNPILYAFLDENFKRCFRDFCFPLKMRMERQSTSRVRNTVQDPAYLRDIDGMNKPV
T9 sequence (Q99705 whole entry): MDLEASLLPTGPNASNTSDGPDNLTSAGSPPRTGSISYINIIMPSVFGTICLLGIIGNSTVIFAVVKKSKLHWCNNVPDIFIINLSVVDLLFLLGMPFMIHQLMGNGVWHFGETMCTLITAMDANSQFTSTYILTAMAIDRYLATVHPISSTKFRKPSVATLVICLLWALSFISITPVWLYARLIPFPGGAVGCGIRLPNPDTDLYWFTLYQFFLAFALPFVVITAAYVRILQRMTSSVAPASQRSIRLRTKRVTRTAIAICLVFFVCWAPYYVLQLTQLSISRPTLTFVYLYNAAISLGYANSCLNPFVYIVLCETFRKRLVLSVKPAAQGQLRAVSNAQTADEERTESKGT
T11 sequence (P32245 whole entry): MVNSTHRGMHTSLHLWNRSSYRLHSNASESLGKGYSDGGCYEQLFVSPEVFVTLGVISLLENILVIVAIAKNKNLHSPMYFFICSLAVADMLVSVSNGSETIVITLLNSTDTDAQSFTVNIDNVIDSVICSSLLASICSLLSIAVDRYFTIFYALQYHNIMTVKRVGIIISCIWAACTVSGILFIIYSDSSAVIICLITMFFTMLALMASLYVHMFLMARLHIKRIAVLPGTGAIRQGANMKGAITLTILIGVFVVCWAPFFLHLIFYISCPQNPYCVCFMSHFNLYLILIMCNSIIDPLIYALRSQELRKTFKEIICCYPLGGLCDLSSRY
T7 sequence (P33032 whole entry): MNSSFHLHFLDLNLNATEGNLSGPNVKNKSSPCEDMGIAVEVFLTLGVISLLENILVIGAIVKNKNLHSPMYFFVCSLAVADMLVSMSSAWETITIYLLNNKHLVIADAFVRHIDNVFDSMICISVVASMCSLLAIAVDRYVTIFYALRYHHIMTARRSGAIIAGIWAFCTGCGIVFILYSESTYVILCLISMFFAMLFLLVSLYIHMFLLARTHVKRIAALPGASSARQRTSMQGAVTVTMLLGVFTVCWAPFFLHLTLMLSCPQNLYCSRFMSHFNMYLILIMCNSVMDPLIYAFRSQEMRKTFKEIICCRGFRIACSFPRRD
T2 sequence (P25103 whole entry): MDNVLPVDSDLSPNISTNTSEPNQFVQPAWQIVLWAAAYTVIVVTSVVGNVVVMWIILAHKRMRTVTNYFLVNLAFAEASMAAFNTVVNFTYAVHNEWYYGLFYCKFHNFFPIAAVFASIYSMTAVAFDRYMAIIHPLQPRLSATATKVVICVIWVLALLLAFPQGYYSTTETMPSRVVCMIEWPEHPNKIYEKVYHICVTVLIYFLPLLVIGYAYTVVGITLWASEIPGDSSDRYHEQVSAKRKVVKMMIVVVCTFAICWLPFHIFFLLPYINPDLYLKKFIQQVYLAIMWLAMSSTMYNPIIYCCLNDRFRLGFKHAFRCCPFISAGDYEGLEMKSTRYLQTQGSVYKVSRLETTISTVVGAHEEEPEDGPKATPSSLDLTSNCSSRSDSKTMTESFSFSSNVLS
T1 sequence (P41146 whole entry): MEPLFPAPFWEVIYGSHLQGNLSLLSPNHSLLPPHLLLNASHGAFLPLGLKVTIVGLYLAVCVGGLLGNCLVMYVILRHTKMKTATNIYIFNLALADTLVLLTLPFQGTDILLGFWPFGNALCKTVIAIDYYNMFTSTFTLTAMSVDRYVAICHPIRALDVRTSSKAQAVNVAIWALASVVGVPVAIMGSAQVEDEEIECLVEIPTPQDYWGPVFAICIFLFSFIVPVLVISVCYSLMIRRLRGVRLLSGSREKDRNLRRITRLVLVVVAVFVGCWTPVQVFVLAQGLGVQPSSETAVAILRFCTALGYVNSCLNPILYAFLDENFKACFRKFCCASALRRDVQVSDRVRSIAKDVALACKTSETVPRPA
T5 sequence (P41968 whole entry): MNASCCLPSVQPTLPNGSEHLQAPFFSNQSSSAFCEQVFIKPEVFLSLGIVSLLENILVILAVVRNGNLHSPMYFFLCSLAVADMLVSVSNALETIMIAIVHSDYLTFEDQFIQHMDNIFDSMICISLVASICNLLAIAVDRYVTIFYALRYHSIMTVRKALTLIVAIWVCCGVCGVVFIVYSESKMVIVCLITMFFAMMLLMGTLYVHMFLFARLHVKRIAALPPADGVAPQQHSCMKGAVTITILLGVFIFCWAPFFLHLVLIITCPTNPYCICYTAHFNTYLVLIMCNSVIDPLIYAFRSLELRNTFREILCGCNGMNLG
T4 sequence (P41143 whole entry): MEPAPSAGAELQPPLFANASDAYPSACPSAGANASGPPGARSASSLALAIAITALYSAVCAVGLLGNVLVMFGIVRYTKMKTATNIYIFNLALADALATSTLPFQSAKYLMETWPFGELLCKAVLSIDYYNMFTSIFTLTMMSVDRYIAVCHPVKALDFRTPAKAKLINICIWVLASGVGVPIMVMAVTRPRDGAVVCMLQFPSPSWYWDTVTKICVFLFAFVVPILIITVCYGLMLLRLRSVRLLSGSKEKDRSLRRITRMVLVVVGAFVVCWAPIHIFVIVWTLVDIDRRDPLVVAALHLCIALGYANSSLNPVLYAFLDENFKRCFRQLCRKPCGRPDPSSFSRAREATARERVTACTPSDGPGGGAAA
T6 sequence (P35372 whole entry): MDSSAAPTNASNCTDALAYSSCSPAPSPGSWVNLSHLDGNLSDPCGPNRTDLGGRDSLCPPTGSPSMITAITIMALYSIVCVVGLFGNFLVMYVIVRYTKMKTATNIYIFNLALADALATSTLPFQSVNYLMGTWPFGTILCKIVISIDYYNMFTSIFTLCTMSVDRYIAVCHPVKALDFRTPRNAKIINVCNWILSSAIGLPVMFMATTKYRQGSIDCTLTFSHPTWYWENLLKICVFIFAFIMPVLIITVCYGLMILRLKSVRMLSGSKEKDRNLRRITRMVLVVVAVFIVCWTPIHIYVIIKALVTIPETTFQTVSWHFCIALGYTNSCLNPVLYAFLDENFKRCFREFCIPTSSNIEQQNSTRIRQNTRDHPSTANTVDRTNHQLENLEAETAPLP

## CO[C@H]1[C@H](O)[C@@H](COCc2ccccc2)OC(OCc2ccc(-c3ccccc3)cc2)[C@@H]1NC(=O)CNC(=N)N (stereo partly drawn) [compound 58]
[1]; human ORL1 membranes
  A10 radioligand binding inhibition: − (“−” indicates less than 50% inhibition at 10 μM)
[2]; human neurokinin NK1 membranes
  A8 radioligand binding inhibition: + (“+” indicates greater than 50% inhibition at 10 μM)
[3]; human NPY-Y1 membranes
  A9 radioligand binding inhibition: − (“−” indicates less than 50% inhibition at 10 μM)
[4]; human δ-opioid (DOP) membranes
  A1 radioligand binding inhibition: − (“−” indicates less than 50% inhibition at 10 μM)
[5]; human melanocortin MC3 membranes
  A3 radioligand binding inhibition: − (“−” indicates less than 50% inhibition at 10 μM)
[6]; human μ-opioid (MOP) membranes
  A7 radioligand binding inhibition: + (“+” indicates greater than 50% inhibition at 10 μM)
[7]; human melanocortin MC5 membranes
  A5 radioligand binding inhibition: + (“+” indicates greater than 50% inhibition at 10 μM)
[8]; mouse urotensin mUR2 membranes
  A11 radioligand binding inhibition: − (“−” indicates less than 50% inhibition at 10 μM)
[9]; human MCH1 membranes
  A6 radioligand binding inhibition: − (“−” indicates less than 50% inhibition at 10 μM)
[10]; human κ-opioid (KOP) membranes
  A2 radioligand binding inhibition: + (“+” indicates greater than 50% inhibition at 10 μM)
[11]; human melanocortin MC4 membranes
  A4 radioligand binding inhibition: + (“+” indicates greater than 50% inhibition at 10 μM)

## CSC1OC(COCc2ccc(-c3ccccc3)cc2)C(O)C(OCc2ccccc2)C1NC(=O)CCN (stereo not drawn) [compound 256]
[1]; [125I]-Nociceptin, FlashPlate
  A10: inhibition of radioligand binding: − (“−” indicates less than 50% inhibition at 10 μM)
[2]; [125I]-Substance P, filtration
  A8: inhibition of radioligand binding: + (“+” indicates greater than 50% inhibition at 10 μM)
[3]; [125I]-PYY, FlashPlate
  A9: inhibition of radioligand binding: − (“−” indicates less than 50% inhibition at 10 μM)
[4]; [3H]-Bremazocine, FlashPlate
  A1: inhibition of radioligand binding: − (“−” indicates less than 50% inhibition at 10 μM)
[5]; [125I]-NDP-αMSH, FlashPlate
  A3: inhibition of radioligand binding: − (“−” indicates less than 50% inhibition at 10 μM)
[6]; [3H]-Naloxone, FlashPlate
  A7: inhibition of radioligand binding: − (“−” indicates less than 50% inhibition at 10 μM)
[7]; [125I]-NDP-αMSH, FlashPlate
  A5: inhibition of radioligand binding: − (“−” indicates less than 50% inhibition at 10 μM)
[8]; [125I]-Urotensin II, FlashPlate
  A11: inhibition of radioligand binding: − (“−” indicates less than 50% inhibition at 10 μM)
[9]; [125I]-S36057, FlashPlate
  A6: inhibition of radioligand binding: − (“−” indicates less than 50% inhibition at 10 μM)
[10]; [3H]-Diprenorphine, filtration
  A2: inhibition of radioligand binding: − (“−” indicates less than 50% inhibition at 10 μM)
[11]; [125I]-NDP-αMSH, FlashPlate
  A4: inhibition of radioligand binding: − (“−” indicates less than 50% inhibition at 10 μM)

## CO[C@H]1[C@H](O)[C@@H](COCc2ccc3ccccc3c2)OC(OCc2ccc(Cl)cc2)[C@@H]1NC(=O)CCCN (stereo partly drawn) [compound 99]
[1]; [125I]-Nociceptin
  A10 radioligand binding, percentage inhibition: − (“−” indicates less than 50% inhibition at 10 μM)
[2]; [125I]-Substance P
  A8 radioligand binding, percentage inhibition: + (“+” indicates greater than 50% inhibition at 10 μM)
[3]; [125I]-PYY
  A9 radioligand binding, percentage inhibition: − (“−” indicates less than 50% inhibition at 10 μM)
[4]; [3H]-Bremazocine
  A1 radioligand binding, percentage inhibition: − (“−” indicates less than 50% inhibition at 10 μM)
[5]; [125I]-NDP-αMSH
  A3 radioligand binding, percentage inhibition: − (“−” indicates less than 50% inhibition at 10 μM)
[6]; [3H]-Naloxone
  A7 radioligand binding, percentage inhibition: − (“−” indicates less than 50% inhibition at 10 μM)
[7]; [125I]-NDP-αMSH
  A5 radioligand binding, percentage inhibition: + (“+” indicates greater than 50% inhibition at 10 μM)
[8]; [125I]-Urotensin II
  A11 radioligand binding, percentage inhibition: − (“−” indicates less than 50% inhibition at 10 μM)
[9]; [125I]-S36057
  A6 radioligand binding, percentage inhibition: − (“−” indicates less than 50% inhibition at 10 μM)
[10]; [3H]-Diprenorphine
  A2 radioligand binding, percentage inhibition: − (“−” indicates less than 50% inhibition at 10 μM)
[11]; [125I]-NDP-αMSH
  A4 radioligand binding, percentage inhibition: + (“+” indicates greater than 50% inhibition at 10 μM)
